Experimental data taken from article PMC11204923, “Marine Cytotoxin Santacruzamate A Derivatives as Potent HDAC1-3 Inhibitors and Their Synergistic Anti-Leukemia Effects with Venetoclax” (Marine Drugs, 2024).

Assays:
Assay type in all cases: biochemical
HDAC1 = target: T1, HDAC1 (Homo sapiens, UniProt Q13547); experiment: In vitro HDAC inhibition fluorescence assay, HDAC1; settings: for inhibition at 0.01 µM: 10 nM; for inhibition at 0.01 µM / inhibition at 0.1 µM: read-out: Inhibition Rate of HDAC1 (%); for inhibition at 0.1 µM: 100 nM
T1 construct: purchased BPS Bioscience
Method: (§1) All of the HDAC enzymes were purchased from BPS Bioscience. In vitro HDAC inhibition assays were conducted as previously described. In brief, 20 μL of recombinant HDAC enzyme solution (HDAC1-9, 11) was mixed with various concentrations of the tested compound (20 μL). […] After incubation at 37 °C for 2 h, the catalysis was stopped by the addition of 10 μL of developer containing 30 mg/mL trypsin and 6 μM trichostatin A (TSA). Then, 30 min later, the fluorescence intensity was measured using a microplate reader at excitation and emission wavelengths of 360 and 460 nm, respectively. The inhibition ratios were calculated from the fluorescence intensity readings of tested wells relative to those of control wells, and the IC50 curves and values were determined by GraphPad Prism 6.0, using the “log(inhibitor) vs. normalized response-variable slope” function.

HDAC3 = target: T2, HDAC3 (Homo sapiens, UniProt O15379); experiment: In vitro HDAC inhibition fluorescence assay, HDAC3; settings: for inhibition at 0.01 µM: 10 nM; for inhibition at 0.01 µM / inhibition at 0.1 µM: read-out: Inhibition Rate of HDAC3 (%); for inhibition at 0.1 µM: 100 nM
T2 construct: purchased BPS Bioscience
Method: as §1

HDAC2 = target: T3, HDAC2 (Homo sapiens, UniProt Q92769); experiment: In vitro HDAC inhibition fluorescence assay, HDAC2
T3 construct: purchased BPS Bioscience
Method: as §1

T1 sequence (Q13547 whole entry): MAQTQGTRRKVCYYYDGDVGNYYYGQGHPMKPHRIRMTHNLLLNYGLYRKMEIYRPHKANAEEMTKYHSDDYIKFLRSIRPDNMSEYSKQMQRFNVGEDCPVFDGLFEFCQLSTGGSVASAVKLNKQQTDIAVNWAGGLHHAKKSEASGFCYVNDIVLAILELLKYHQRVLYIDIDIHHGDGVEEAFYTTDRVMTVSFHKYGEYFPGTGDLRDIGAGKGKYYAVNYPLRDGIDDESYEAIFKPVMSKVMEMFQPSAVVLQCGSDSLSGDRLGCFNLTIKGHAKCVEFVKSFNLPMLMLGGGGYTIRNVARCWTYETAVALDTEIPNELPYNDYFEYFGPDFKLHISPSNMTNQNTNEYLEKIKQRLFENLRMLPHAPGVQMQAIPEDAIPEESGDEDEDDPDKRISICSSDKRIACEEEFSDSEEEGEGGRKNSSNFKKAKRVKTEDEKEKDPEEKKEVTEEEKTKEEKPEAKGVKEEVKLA
T2 sequence (O15379 whole entry): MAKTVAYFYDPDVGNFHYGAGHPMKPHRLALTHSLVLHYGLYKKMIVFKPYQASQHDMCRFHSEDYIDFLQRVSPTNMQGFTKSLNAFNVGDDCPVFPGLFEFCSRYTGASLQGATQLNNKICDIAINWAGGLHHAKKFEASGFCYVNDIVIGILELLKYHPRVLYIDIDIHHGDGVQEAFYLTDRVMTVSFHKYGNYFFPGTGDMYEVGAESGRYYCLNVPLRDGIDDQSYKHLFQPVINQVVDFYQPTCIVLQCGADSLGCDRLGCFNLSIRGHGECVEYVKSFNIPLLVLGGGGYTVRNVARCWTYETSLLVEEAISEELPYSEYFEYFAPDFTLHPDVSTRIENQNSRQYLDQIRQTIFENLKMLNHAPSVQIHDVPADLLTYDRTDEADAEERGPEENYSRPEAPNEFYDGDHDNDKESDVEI
T2 sequence (Q9Y618 395-489 partner limits assumed): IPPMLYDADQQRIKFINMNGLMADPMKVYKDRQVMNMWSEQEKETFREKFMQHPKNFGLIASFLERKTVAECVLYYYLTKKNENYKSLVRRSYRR
T3 sequence (Q92769 whole entry): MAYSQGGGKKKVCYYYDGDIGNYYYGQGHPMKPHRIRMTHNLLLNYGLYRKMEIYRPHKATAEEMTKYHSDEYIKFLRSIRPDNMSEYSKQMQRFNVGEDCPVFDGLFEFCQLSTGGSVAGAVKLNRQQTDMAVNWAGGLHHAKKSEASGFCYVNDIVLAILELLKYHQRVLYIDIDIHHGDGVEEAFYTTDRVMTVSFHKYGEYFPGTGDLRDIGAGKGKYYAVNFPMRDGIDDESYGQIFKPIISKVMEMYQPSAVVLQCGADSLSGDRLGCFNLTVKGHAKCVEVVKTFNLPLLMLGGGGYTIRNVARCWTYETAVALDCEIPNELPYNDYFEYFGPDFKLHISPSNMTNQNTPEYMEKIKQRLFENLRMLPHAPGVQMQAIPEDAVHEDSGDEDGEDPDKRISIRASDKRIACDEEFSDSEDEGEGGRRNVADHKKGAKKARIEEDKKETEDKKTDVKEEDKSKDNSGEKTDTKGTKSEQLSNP

Row | SMILES | inhibition at 0.01 µM (HDAC1) [%] | inhibition at 0.1 µM (HDAC1) [%] | inhibition at 0.01 µM (HDAC3) [%] | inhibition at 0.1 µM (HDAC3) [%] | IC50 (HDAC1) [nM] | IC50 (HDAC2) [nM] | IC50 (HDAC3) [nM]
1 | CCCNNC(=O)Cc1ccc(C(=O)NCCc2ccccc2)cc1 [Compound 9i, 4-(2-Oxo-2-(2-propylhydrazineyl)ethyl)-N-phenethylbenzamide] | 12.5 ± 0.2 | 16.4 ± 1.2 | -0.8 ± 4.2 | -3.1 ± 3.4 | – | – | –
2 | CCCNNC(=O)CCCCC(=O)NCCc1ccccc1 [Compound 9c, 6-Oxo-N-phenethyl-6-(2-propylhydrazineyl)hexanamide] | -6 ± 1.2 | 27.5 ± 0.6 | 18.2 ± 2.9 | 61.9 ± 0.7 | – | – | –
3 | CCCNNC(=O)c1ccc(C=CC(=O)NCCc2ccccc2)cc1 [Compound 9l, N-Phenethyl-3-(4-(2-propylhydrazine-1-carbonyl)phenyl)acrylamide] | 36.5 ± 2.1 | 74.5 ± 0.3 | 78.1 ± 0.1 | 87.2 ± 2.6 | 37.4 ± 5.8 | 116 ± 11.4 | 6 ± 1.7
4 | CCCNNC(=O)C=Cc1ccc(CNCc2ccccn2)cc1 [Compound 25d, N′-Propyl-3-(4-(((pyridin-2-ylmethyl)amino)methyl)phenyl)acrylohydrazide] | 9.3 ± 2.3 | 61.7 ± 1.1 | 62.5 ± 0.4 | 86.9 ± 0.1 | 101 ± 27 | 314 ± 36.7 | 13 ± 6.4
5 | CCCNNC(=O)c1ccc(C(=O)NCCc2ccccc2)cc1 [Compound 9g, N-Phenethyl-4-(2-propylhydrazine-1-carbonyl)benzamide] | 23.5 ± 2 | 30.1 ± 2.1 | 11.2 ± 8 | 50.6 ± 5.4 | – | – | –
6 | CCCNNC(=O)C=Cc1ccc(CNc2cccc3ccccc23)cc1 [Compound 25f, 3-(4-((Naphthalen-1-ylamino)methyl)phenyl)-N′-propylacrylohydrazide] | 31.3 | 71.2 ± 0.9 | 25.7 ± 1.3 | 60.7 ± 0.5 | – | – | –
7 | CCCNNC(=O)CCCCCCNC(=O)Cc1ccccc1 [Compound 14d, N-(7-Oxo-7-(2-propylhydrazineyl)heptyl)-2-phenylacetamide] | 1.9 ± 3.7 | 43.2 ± 0.1 | 21.2 ± 1.5 | 76.8 ± 0.4 | – | – | –
8 | CCCNNC(=O)CCCCCCC(=O)NCCc1ccccc1 [Compound 9e, 8-Oxo-N-phenethyl-8-(2-propylhydrazineyl)octanamide] | 12 ± 0.9 | 65.6 ± 0.1 | 38.8 ± 3 | 85.5 ± 0.6 | – | – | –
9 | CCCNNC(=O)CCCCCCCC(=O)NCCc1ccccc1 [Compound 9f, 9-Oxo-N-phenethyl-9-(2-propylhydrazineyl)nonanamide] | 15.9 ± 1.6 | 57.1 ± 0.7 | 19.6 ± 8 | 79.9 ± 0.8 | – | – | –
10 | CCCNNC(=O)CCCCNC(=O)Cc1ccccc1 [Compound 14b, N-(5-Oxo-5-(2-propylhydrazineyl)pentyl)-2-phenylacetamide] | -9.04 ± 0.1 | 7.7 ± 2.1 | 16.6 ± 3.2 | 45.2 ± 1.1 | – | – | –
11 | CCCNNC(=O)C=Cc1ccc(C(=O)N2CCc3ccc(Br)cc3C2)cc1 [Compound 19d, 3-(4-(7-Bromo-1,2,3,4-tetrahydroisoquinoline-2-carbonyl)phenyl)-N′-propylacrylohydrazide] | -1.4 ± 0.5 | 38.2 ± 2.3 | -0.4 ± 3.4 | 34.8 ± 1.2 | – | – | –
12 | CCCNNC(=O)C=Cc1ccc(C(=O)N2CCc3ccccc3C2)cc1 [Compound 19b, N′-Propyl-3-(4-(1,2,3,4-tetrahydroisoquinoline-2-carbonyl)phenyl)acrylohydrazide] | -4.6 ± 2.1 | -0.4 ± 1.7 | -1.1 ± 2.3 | 18.3 ± 0.5 | – | – | –
13 | CCCNNC(=O)CCCC(=O)NCCc1ccccc1 [Compound 9b, 5-Oxo-N-phenethyl-5-(2-propylhydrazineyl)pentanamide] | -9.2 ± 1.4 | 3.1 ± 1.1 | 11.5 ± 0.7 | 53.7 | – | – | –
14 | CCCNNC(=O)C=Cc1ccc(C(=O)N2CCc3cc(Br)ccc3C2)cc1 [Compound 19c, 3-(4-(6-Bromo-1,2,3,4-tetrahydroisoquinoline-2-carbonyl)phenyl)-N′-propylacrylohydrazide] | 1.5 ± 1.5 | 27.2 ± 2.8 | 4.1 ± 9.9 | 38.1 ± 0.8 | – | – | –
15 | CCCNNC(=O)CCCCCCCCNC(=O)Cc1ccccc1 [Compound 14f, N-(9-Oxo-9-(2-propylhydrazineyl)nonyl)-2-phenylacetamide] | 9.8 ± 0.4 | 32.7 ± 1.2 | 3.2 ± 10.6 | 48.8 ± 1.1 | – | – | –
16 | CCCNNC(=O)CCCNC(=O)Cc1ccccc1 [Compound 14a, N-(4-Oxo-4-(2-propylhydrazineyl)butyl)-2-phenylacetamide] | -7 ± 2.6 | 2.3 ± 2.4 | 2.4 ± 2.9 | 18.2 ± 3.3 | – | – | –
17 | CCCNNC(=O)C=Cc1ccc(CN2C(=O)c3ccccc3C2=O)cc1 [Compound 30, 3-(4-((1,3-Dioxoisoindolin-2-yl)methyl)phenyl)-N′-propylacrylohydrazide] | 5.1 ± 1.3 | 28.4 ± 1.1 | 53.9 ± 0.4 | 85.1 ± 0.1 | 136 ± 20.6 | 651.9 ± 3.4 | 27.8 ± 1.8
18 | CCCNNC(=O)c1ccc(CC(=O)NCCc2ccccc2)cc1 [Compound 9h, N-Phenethyl-2-(4-(2-propylhydrazine-1-carbonyl)phenyl)acetamide] | 5.61 ± 1.6 | 10.1 ± 0.7 | -4.61 ± 13.6 | -5.9 ± 0.6 | – | – | –
19 | CCCNNC(=O)CCCCCC(=O)NCCc1ccccc1 [Compound 9d, 7-Oxo-N-phenethyl-7-(2-propylhydrazineyl)heptanamide] | 5.58 ± 2.39 | 52 ± 2.86 | 21.2 ± 1.5 | 76.82 ± 0.47 | – | – | –
20 | CCCNNC(=O)CCCCCCCNC(=O)Cc1ccccc1 [Compound 14e, N-(8-Oxo-8-(2-propylhydrazineyl)octyl)-2-phenylacetamide] | 8.8 ± 3.7 | 51.6 ± 0.9 | 23.1 ± 0.1 | 71.5 ± 0.7 | – | – | –
21 | CCCNNC(=O)CCc1ccc(C(=O)NCCc2ccccc2)cc1 [Compound 9k, 4-(3-Oxo-3-(2-propylhydrazineyl)propyl)-N-phenethylbenzamide] | 23.1 ± 2.1 | 67.9 ± 1.4 | – | – | 122 ± 18.6 | 374 ± 21.7 | –
22 | CCCNNC(=O)c1ccc(CCC(=O)NCCc2ccccc2)cc1 [Compound 9m, N-Phenethyl-3-(4-(2-propylhydrazine-1-carbonyl)phenyl)propanamide] | 21.2 ± 0.9 | 67.3 ± 2.8 | 27.2 ± 2.7 | 80.7 ± 0.7 | – | – | –
23 | CCCNNC(=O)CCC(=O)NCCc1ccccc1 [Compound 9a, 4-Oxo-N-phenethyl-4-(2-propylhydrazineyl)butanamide] | 2.2 ± 2.3 | 0.3 ± 1.7 | -0.6 ± 1.9 | 11.1 ± 0.5 | – | – | –
24 | CCCNNC(=O)C=Cc1ccc(CNc2ccccc2)cc1 [Compound 25a, 3-(4-((Phenylamino)methyl)phenyl)-N′-propylacrylohydrazide] | 14.2 ± 1.5 | 60.7 ± 0.7 | 49.2 ± 0.9 | 80.4 ± 0.7 | 96.5 ± 1.1 | 224 ± 19.4 | 8.2 ± 0.9
25 | CCCNNC(=O)CCCCCNC(=O)Cc1ccccc1 [Compound 14c, N-(6-Oxo-6-(2-propylhydrazineyl)hexyl)-2-phenylacetamide] | -6.8 ± 2.1 | 14.4 ± 2.4 | 16.1 ± 3.3 | 54.4 ± 0.7 | – | – | –
26 | CCCNNC(=O)C=Cc1ccc(C(=O)NCCc2ccccc2)cc1 [Compound 9j, 4-(3-Oxo-3-(2-propylhydrazineyl)prop-1-en-1-yl)-N-phenethylbenzamide] | 32.8 ± 0.1 | 76.7 ± 0.3 | – | – | 35.8 ± 3.6 | 69.4 ± 3.4 | –
27 | CCCNNC(=O)C=Cc1ccc(C(=O)NC2Cc3ccccc3C2)cc1 [Compound 19a, N-(2,3-Dihydro-1H-inden-2-yl)-4-(3-oxo-3-(2-propylhydrazineyl)prop-1-en-1-yl)benzamide] | 8.1 ± 0.3 | 39.9 ± 0.6 | 37.4 ± 0.1 | 78.2 ± 0.5 | – | – | –
